The term inhibition denotes the percentage by which the read-out fell short of the control.

The source of these data is patent US20120053148A1, “INHIBITORS OF HEPATITIS C VIRUS” (GILEAD SCIENCES, INC., priority 2010, published 2012).

One experiment relates to HCV Replicon IB. As to the kind of experiment: HCV replicon assay in Huh-7 cells, genotype 1b (Rluc luciferase readout). It is filed as cell-based, hepatitis C virus. The settings on record: Hepatitis C virus, 72 h; 10 μM; Huh-7 HCV replicon cells, 3 days; read-out: % inhibition @ 10 μM HCV Replicon IB. (In antiviral work, replicon cells carry a viral genome segment that copies itself.)

In another experiment the test system is HCV Replicon IA. As to the kind of experiment: HCV replicon assay in Huh-7 cells, genotype 1a. The settings on record: Hepatitis C virus, 72 h, Huh-7 HCV replicon cells, 3 days. It is filed as cell-based.

In the case of `O=C(NCc1ccc(Cl)s1)c1cc(O)c2cc(-c3cc[nH]n3)cc(C(F)(F)F)c2n1` [Compound 14], the inhibition at 10 µM in the experiment with HCV Replicon IB worked out at 68.6%; with HCV Replicon IA, 84.2%.

With `CC(NC(=O)c1cc(O)c2cc(-c3cn[nH]c3)cc(C(F)(F)F)c2n1)c1ccccn1` (centres unmarked) [Compound 20], the inhibition at 10 µM in the experiment on HCV Replicon IB came to 89%; in the experiment with HCV Replicon IA, 86.1%.

On to `O=C(NCc1cccs1)c1cc(O)c2cc(-c3cn[nH]c3)cc(C(F)(F)F)c2n1` [Compound 36], for which the values for the inhibition at 10 µM in the experiment on HCV Replicon IB and in the experiment on HCV Replicon IA were 99.4% and 99.3%, respectively.

As to `O=C(NCc1cccs1)c1cc(Cl)c2cc(-c3ccccc3)cc(C(F)(F)F)c2n1` [Compound 65], the inhibition at 10 µM in the experiment with HCV Replicon IB was 99.5%; with HCV Replicon IA, 97.5%.

For `O=C(NCc1cccs1)c1cc(O)c2c(Cl)c(-c3ccccc3)cc(C(F)(F)F)c2n1` [Compound 64], the inhibition at 10 µM in the experiment with HCV Replicon IB worked out at 88.2%; in the experiment on HCV Replicon IA, 79.2%.

Turning to `O=C(NCc1cccs1)c1cc(O)c2cc(-c3ccccc3)c(F)c(C(F)(F)F)c2n1` [Compound 59], the inhibition at 10 µM in the experiment with HCV Replicon IB came out at 97.2%; in the experiment on HCV Replicon IA it was 92.7%.

As for `O=C(c1cc(O)c2cc(-c3ccoc3)cc(C(F)(F)F)c2n1)N1CCC(c2cccc(F)c2)CC1` [Compound 31], the inhibition at 10 µM turned out to be 58.1% in the experiment with HCV Replicon IB and 98.1% in the experiment on HCV Replicon IA.

Consider `Oc1cc(-c2nnc(Nc3ccccc3)o2)nc2c(C(F)(F)F)cc(-c3ccccc3)cc12` [Compound 54], for which the inhibition at 10 µM is 98.7% in the experiment with HCV Replicon IB and 97.9% in the experiment with HCV Replicon IA.

Turning to `O=C(Cc1cccs1)Nc1cc(O)c2cc(-c3ccccc3)cc(C(F)(F)F)c2n1` [Compound 40], the inhibition at 10 µM worked out at 97.6% with HCV Replicon IB and 99.7% in the experiment on HCV Replicon IA.

Turning to `O=C(NCc1ccccc1)c1cc(O)c2cc(-c3cn[nH]c3)cc(C(F)(F)F)c2n1` [Compound 5], the inhibition at 10 µM in the experiment on HCV Replicon IB and with HCV Replicon IA was 99.2% in each case.

For `Nc1nc(C(=O)NCc2cccs2)nc2c(C(F)(F)F)cc(-c3ccccc3)cc12` [Compound 51], the inhibition at 10 µM in the experiment with HCV Replicon IB and in the experiment with HCV Replicon IA was 100% in each case.

In the case of `O=C(NCc1ccccn1)c1cc(O)c2cc(-c3ccccc3F)cc(C(F)(F)F)c2n1` [Compound 70], the inhibition at 10 µM in the experiment on HCV Replicon IB came to 82%; with HCV Replicon IA, 69.1%.

With `O=C(NCc1ccc(Cl)s1)c1cc(O)c2cc(-c3ccoc3)cc(C(F)(F)F)c2n1` [Compound 23], the inhibition at 10 µM turned out to be 99.4% in the experiment with HCV Replicon IB and 99.9% in the experiment on HCV Replicon IA.

With `O=C(NCCc1ccccc1)c1cc(O)c2cc(-c3cn[nH]c3)cc(C(F)(F)F)c2n1` [Compound 16], the inhibition at 10 µM in the experiment on HCV Replicon IB amounted to 96.7%; in the experiment with HCV Replicon IA, 93%.

As to `O=C(Nc1ccccc1)c1cc(O)c2cc(-c3cn[nH]c3)cc(C(F)(F)F)c2n1` [Compound 19], the values for the inhibition at 10 µM in the experiment with HCV Replicon IB and with HCV Replicon IA were 71.1% and 98.5%, respectively.

In the case of `COc1cc(C(=O)NCc2cccs2)nc2c(C(F)(F)F)cc(-c3ccoc3)cc12` [Compound 27], the values for the inhibition at 10 µM with HCV Replicon IB and with HCV Replicon IA were 80.3% and 65.5%, respectively.

As for `O=C(NCc1cccs1)c1nc(O)c2cc(-c3ccccc3)cc(C(F)(F)F)c2n1` [Compound 47, 4-oxo-6-phenyl-8-trifluoromethyl-3,4-dihydro-quinazoline-2-carboxylic acid (thiophen-2-ylmethyl)-amide], the inhibition at 10 µM in the experiment with HCV Replicon IB was 99.8%; in the experiment on HCV Replicon IA it was 99.7%.

As for `O=C(NCc1cccs1)c1nc(O)c2cc(-c3ccoc3)cc(C(F)(F)F)c2n1` [Compound 48], the values for the inhibition at 10 µM with HCV Replicon IB and in the experiment on HCV Replicon IA were 99.9% and 99.4%, respectively.

Consider `O=C(NCc1cccs1)c1nc(O)c2cc(-c3cn[nH]c3)cc(C(F)(F)F)c2n1` [Compound 49], for which the results for the inhibition at 10 µM in the experiment with HCV Replicon IB and with HCV Replicon IA were 99% and 99.7%, respectively.
